# Measured values published in patent US20260285850A1, “SUBSTITUTED OXAZOLIDINONES AND IMIDAZOLINONES AS HERBICIDES” (FMC CORPORATION, priority 2023, published 2026).
# Columns and labels:
# Format in all cases: in vivo
# [1] = tested on: barnyardgrass (Echinochloa crus-galli); assay: Test A preemergence soil spray, visual injury rating 0-100; details: 10 days, 0 = no effect, 100 = complete control
# Method in brief: (§1)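 Plants were grown in a loam soil-sand blend and treated with test chemical in a non-phytotoxic solvent mixture containing surfactant, either sprayed on soil preemergence or applied postemergence to 2-10 cm plants. After 10 days in a greenhouse, injury was scored visually against untreated controls, 0 meaning no effect and 100 complete control.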
# [2] = tested on: blackgrass (Alopecurus myosuroides); assay: as above; details: 10 days, 0 = no effect, 100 = complete control
# Method in brief: as §1
# corn (Zea mays) [3] = assay: as above; details: 10 days, 0 = no effect, 100 = complete control
# Method in brief: as §1
# [4] = tested on: green foxtail (Setaria viridis); assay: as above; details: 10 days, 0 = no effect, 100 = complete control
# Method in brief: as §1
# kochia (Bassia scoparia) [5] = assay: as above; details: 10 days, 0 = no effect, 100 = complete control
# Method in brief: as §1
# [6] = tested on: oat, wild (wild oat, Avena fatua); assay: as above; details: 10 days, 0 = no effect, 100 = complete control
# Method in brief: as §1
# [7] = tested on: palmer (palmer amaranth, palmer pigweed, Amaranthus palmeri); assay: as above; details: 10 days, 0 = no effect, 100 = complete control
# Method in brief: as §1
# [8] = tested on: ragweed (common ragweed, Ambrosia artemisiifolia); assay: as above; details: 10 days, 0 = no effect, 100 = complete control
# Method in brief: as §1
# soybean (Glycine max) [9] = assay: as above; details: 10 days, 0 = no effect, 100 = complete control
# Method in brief: as §1
# [10] = tested on: wheat (Triticum aestivum); assay: as above; details: 10 days, 0 = no effect, 100 = complete control
# Method in brief: as §1
# [11] = tested on: barnyardgrass (Echinochloa crus-galli); assay: Test A postemergence application, visual injury rating 0-100; details: 10 days
# Method in brief: as §1
# [12] = tested on: blackgrass (Alopecurus myosuroides); assay: as above; details: 10 days
# Method in brief: as §1
# corn (Zea mays) [13] = assay: as above; details: 10 days
# Method in brief: as §1
# [14] = tested on: galium (catchweed bedstraw, Galium aparine); assay: as above; details: 10 days
# Method in brief: as §1
# [15] = tested on: green foxtail (Setaria viridis); assay: as above; details: 10 days
# Method in brief: as §1
# [16] = tested on: horseweed (Erigeron canadensis); assay: as above; details: 10 days
# Method in brief: as §1
# kochia (Bassia scoparia) [17] = assay: as above; details: 10 days
# Method in brief: as §1
# [18] = tested on: oat, wild (wild oat, Avena fatua); assay: as above; details: 10 days
# Method in brief: as §1
# [19] = tested on: palmer (palmer amaranth, palmer pigweed, Amaranthus palmeri); assay: as above; details: 10 days
# Method in brief: as §1
# [20] = tested on: ragweed (common ragweed, Ambrosia artemisiifolia); assay: as above; details: 10 days
# Method in brief: as §1
# [21] = tested on: ryegrass, Italian (italian ryegrass, Lolium multiflorum); assay: as above; details: 10 days
# Method in brief: as §1
# soybean (Glycine max) [22] = assay: as above; details: 10 days
# Method in brief: as §1
# [23] = tested on: wheat (Triticum aestivum); assay: as above; details: 10 days
# Method in brief: as §1
# [24] = tested on: barnyardgrass (Echinochloa crusgalli); assay: Test B flooded paddy test, visual plant response rating 0-100; details: 250 g ai/ha, Flood, applied to paddy water, evaluated after 13 days
# Method in brief: (§2)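 Compounds applied to standing paddy water (3 cm above soil, maintained for the test duration) on 2-leaf-stage plants; visual rating vs controls at 13 days, greenhouse.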
# [25] = tested on: ducksalad (Heteranthera limosa); assay: as above; details: 250 g ai/ha, Flood, applied to paddy water, evaluated after 13 days
# Method in brief: as §2
# rice (Oryza sativa) = assay: as above; details: 250 g ai/ha, Flood, applied to paddy water, evaluated after 13 days
# Method in brief: as §2
# [26] = tested on: sedge, umbrella (small-flower umbrella sedge, Cyperus difformis); assay: as above; details: 250 g ai/ha, Flood, applied to paddy water, evaluated after 13 days
# Method in brief: as §2
# [27] = 31 g ai/ha, postemergence, 0 = no effect, 100 = complete control
# [28] = Postemergence, 125 g ai/ha, 0 is no effect, 100 is complete control
smiles,measurement,setting,value
CC1(C(=O)NC2CCC(C(=O)O)C2)CN(c2cc(F)cc(Cl)c2)C(=O)O1 (centres unmarked) [Compound 7],Barnyardgrass plant response rating (0-100),[1]; 31 g ai/ha,0
same,Barnyardgrass plant response rating (0 to 100 scale),[1]; 125 g ai/ha,90
same,Blackgrass plant response rating (0-100),[2]; 31 g ai/ha,20
same,Blackgrass plant response rating (0 to 100 scale),[2]; 125 g ai/ha,70
same,Corn plant response rating (0-100),corn (Zea mays) [3]; 31 g ai/ha,0
same,Corn plant response rating (0 to 100 scale),corn (Zea mays) [3]; 125 g ai/ha,80
same,"Foxtail, Green plant response rating (0-100)",[4]; 31 g ai/ha,20
same,"Foxtail, Green plant response rating (0 to 100 scale)",[4]; 125 g ai/ha,100
same,Kochia plant response rating (0-100),kochia (Bassia scoparia) [5]; 31 g ai/ha,0
same,Kochia plant response rating (0 to 100 scale),kochia (Bassia scoparia) [5]; 125 g ai/ha,80
same,"Oat, Wild plant response rating (0-100)",[6]; 31 g ai/ha,20
same,"Oat, Wild plant response rating (0 to 100 scale)",[6]; 125 g ai/ha,70
same,"Amaranth, Palmer plant response rating (0-100)",[7]; 31 g ai/ha,0
same,"Amaranth, Palmer plant response rating (0 to 100 scale)",[7]; 125 g ai/ha,90
same,Ragweed plant response rating (0-100),[8]; 31 g ai/ha,0
same,Ragweed plant response rating (0 to 100 scale),[8]; 125 g ai/ha,0
same,Soybean plant response rating (0-100),soybean (Glycine max) [9]; 31 g ai/ha,20
same,Soybean plant response rating (0 to 100 scale),soybean (Glycine max) [9]; 125 g ai/ha,60
same,Wheat plant response rating (0-100),[10]; 31 g ai/ha,90
same,Wheat plant response rating (0 to 100 scale),[10]; 125 g ai/ha,90
same,Barnyardgrass plant response rating (0-100),[11]; [27],100
same,Barnyardgrass plant response rating (0 to 100 scale),[11]; [28],100
same,Blackgrass plant response rating (0-100),[12]; [27],60
same,Blackgrass plant response rating (0 to 100 scale),[12]; [28],70
same,Corn plant response rating (0-100),corn (Zea mays) [13]; [27],90
same,Corn plant response rating (0 to 100 scale),corn (Zea mays) [13]; [28],100
same,Galium plant response rating (0-100),[14]; [27],80
same,Galium plant response rating (0 to 100 scale),[14]; [28],80
same,"Foxtail, Green plant response rating (0-100)",[15]; [27],50
same,"Foxtail, Green plant response rating (0 to 100 scale)",[15]; [28],90
same,Horseweed plant response rating (0-100),[16]; [27],0
same,Horseweed plant response rating (0 to 100 scale),[16]; [28],40
same,Kochia plant response rating (0-100),kochia (Bassia scoparia) [17]; [27],70
same,Kochia plant response rating (0 to 100 scale),kochia (Bassia scoparia) [17]; [28],80
same,"Oat, Wild plant response rating (0-100)",[18]; [27],90
same,"Oat, Wild plant response rating (0 to 100 scale)",[18]; [28],100
same,"Amaranth, Palmer plant response rating (0-100)",[19]; [27],50
same,"Amaranth, Palmer / Pigweed, Palmer plant response rating (0 to 100 scale)",[19]; [28],80
same,Ragweed plant response rating (0-100),[20]; [27],0
same,Ragweed plant response rating (0 to 100 scale),[20]; [28],20
same,"Ryegrass, Italian plant response rating (0-100)",[21]; [27],80
same,"Ryegrass, Italian plant response rating (0 to 100 scale)",[21]; [28],90
same,Soybean plant response rating (0-100),soybean (Glycine max) [22]; [27],50
same,Soybean plant response rating (0 to 100 scale),soybean (Glycine max) [22]; [28],60
same,Wheat plant response rating (0-100),[23]; [27],90
same,Wheat plant response rating (0 to 100 scale),[23]; [28],90
same,"Plant response rating, Barnyardgrass (0 to 100 scale, 0 is no effect and 100 is complete control)",[24],60
same,"Plant response rating, Ducksalad (0 to 100 scale, 0 is no effect and 100 is complete control)",[25],60
same,"Plant response rating, Rice (0 to 100 scale, 0 is no effect and 100 is complete control)",rice (Oryza sativa),25
same,"Plant response rating, Sedge, Umbrella (0 to 100 scale, 0 is no effect and 100 is complete control)",[26],90
